Measurements published in patent publication US12227500B2, “Substituted pyrrolo[2,3-b]pyridines for suppressing toxic endoplasmic reticulum stress” (THE TRUSTEES OF COLUMBIA UNIVERSITY IN THE CITY OF NEW YORK, priority 2018, dated 2025).

Assays:
[1] = Spectrophotometric solubility assay of vehicle formulations (540 nM); format: physicochemical
Experimental: These mixtures were then read on a spectrophotometer at […] to assess optical density, a measure of the transparency of the mixture and an indicator of the formation of precipitates. […] At higher concentrations, these precipitates were visible by eye.
Compounds diluted in different vehicle formulations were added to clear cell culture media at ratios consistent with our in vivo dosing scheme.

HGK/MAP4K4 = HGK/MAP4K4 (Homo sapiens, UniProt O95819); settings: cited from earlier work
Chain of HGK/MAP4K4 (O95819 whole entry, species assumed): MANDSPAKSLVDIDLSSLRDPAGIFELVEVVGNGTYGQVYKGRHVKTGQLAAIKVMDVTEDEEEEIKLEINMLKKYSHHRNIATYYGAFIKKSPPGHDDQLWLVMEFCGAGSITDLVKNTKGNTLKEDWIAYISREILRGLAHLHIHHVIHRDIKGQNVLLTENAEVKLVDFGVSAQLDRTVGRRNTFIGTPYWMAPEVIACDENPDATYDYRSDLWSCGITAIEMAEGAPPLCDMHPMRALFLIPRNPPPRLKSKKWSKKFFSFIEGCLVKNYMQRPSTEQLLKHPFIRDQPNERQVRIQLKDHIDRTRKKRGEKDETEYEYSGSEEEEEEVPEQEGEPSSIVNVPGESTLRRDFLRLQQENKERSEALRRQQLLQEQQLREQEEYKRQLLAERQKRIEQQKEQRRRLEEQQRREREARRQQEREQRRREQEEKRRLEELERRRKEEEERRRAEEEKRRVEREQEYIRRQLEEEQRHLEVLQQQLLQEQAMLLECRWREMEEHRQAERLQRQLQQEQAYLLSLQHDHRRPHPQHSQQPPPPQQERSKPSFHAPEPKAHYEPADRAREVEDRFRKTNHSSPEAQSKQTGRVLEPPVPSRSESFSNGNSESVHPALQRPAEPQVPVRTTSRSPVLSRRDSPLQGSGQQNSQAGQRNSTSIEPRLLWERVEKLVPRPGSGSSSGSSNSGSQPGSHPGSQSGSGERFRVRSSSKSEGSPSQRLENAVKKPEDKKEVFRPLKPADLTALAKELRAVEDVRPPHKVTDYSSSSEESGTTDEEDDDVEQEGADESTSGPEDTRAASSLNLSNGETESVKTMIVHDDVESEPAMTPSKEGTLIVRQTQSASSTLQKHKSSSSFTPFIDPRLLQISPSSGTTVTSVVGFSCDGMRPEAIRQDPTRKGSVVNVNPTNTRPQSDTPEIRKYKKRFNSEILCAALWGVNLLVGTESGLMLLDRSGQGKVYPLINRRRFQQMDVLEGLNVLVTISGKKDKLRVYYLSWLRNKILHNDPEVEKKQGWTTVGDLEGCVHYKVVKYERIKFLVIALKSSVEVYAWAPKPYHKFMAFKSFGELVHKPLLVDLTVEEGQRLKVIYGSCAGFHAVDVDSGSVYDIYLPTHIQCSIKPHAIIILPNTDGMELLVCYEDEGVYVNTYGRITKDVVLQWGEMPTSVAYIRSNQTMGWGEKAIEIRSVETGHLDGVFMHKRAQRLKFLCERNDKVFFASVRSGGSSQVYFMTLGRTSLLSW

[2] = Pharmacokinetics of compound 1 in mice (background); settings: mouse, in vivo
[3] = system: human stem cell-derived motor neurons derived from a healthy patient; assay: CPA survival assay, wild-type human stem cell-derived motor neurons; settings: CPA 33 μM; at 1.2 μM (PF-6260933), 2.4 μM (GNE-495), 0.6 μM (URMC-099)
[4] = Safety of long-term administration in drinking water; format: in vivo; settings: 10 mg/kg, 60 days from P30
Description: […]. Treatment began at P30 and continued for 60 days.

[5] = system: panel of 371 human kinases; assay: Radiolabeled ATP kinase assay, panel of 371 kinases (Table S6); format: biochemical; settings: 0.1 μM, 10 μM ATP
Description: ; FIG. 38C). […]. Further targeted analyses, such as genetic knock-down or knock-out, may be warranted to parse the role of these additional kinases in our model of neurodegeneration.

phospho-cjun = assay: Phospho-cjun in olfactory bulbs after treatment in vivo (western blot); design: species or system mouse; settings: 10 mg/kg oral gavage
Experimental: Compounds at 10 mg/kg were delivered intraperitoneally (IP), orally, or sub-cutaneously (SC). Animals were sacrificed 1 h after treatment. Their olfactory bulbs were dissected and lysed for western blot analysis. Phospho-cjun expression was normalized to the housekeeping protein GAPDH.
We therefore selected phospho-cjun as a marker of target engagement for further in vivo studies. C-jun is highly expressed throughout the murine central nervous system, especially in the olfactory bulbs. […] Animals were then sacrificed after 1 h, and their olfactory bulbs were sub-dissected and lysed for further western blot analysis. Samples were probed with an antibody specific to phosphorylated c-jun (at serine 63; cell signaling) and normalized to the housekeeping gene GAPDH.

Row | Compound | solubility after adding 2-hydroxypropyl-β-cyclodextrin to the vehicle ([1]; 11% 2-hydroxypropyl-β-cyclodextrin) | solubility in cell culture media ([1]; formulation 55% saline, 40% PEG-400, 5% DMSO) | HGK enzyme activity remaining (HGK/MAP4K4; 1 μM treatment) | inhibition of HGK activity in a cell-free assay (HGK/MAP4K4; 1 μM, Goodfellow et al. 2013) | half-life [2] | motor neuron survival restored, % of vehicle controls (maximum) [3] | body mass vs vehicle-treated controls [4] | survival, hindlimb strength, gross pathology [4] | % Enzyme Activity (relative to DMSO controls) ([5]; LYN B) | % Enzyme Activity (relative to DMSO controls) ([5]; PKCb2) | % Enzyme Activity (relative to DMSO controls) ([5]; PKG1b) | oral bioavailability (from reduction of cjun phosphorylation after oral gavage) (phospho-cjun)
1 | CN1CCN(Cc2ccc(-c3cnc4[nH]cc(-c5ccc6[nH]ccc6c5)c4c3)cc2)CC1 [Compound 1, 3-(1H-Indol-5-yl)-5-(4-((4-methylpiperazin-1-yl)methyl)phenyl)-1H-pyrrolo[2,3-b]pyridine, reference compound] | fully solubilize | highly insoluble | 0.54% | > 99% | 120 to 180 min | 90% | – | – | – | – | – | –
2 | OCCN1CCN(Cc2ccc(-c3cnc4[nH]cc(-c5cccc(Cl)c5)c4c3)cc2)CC1 [Compound 12k, 2-(4-(4-(3-(3-Chlorophenyl)-1H-pyrrolo[2,3-b]pyridin-5-yl)benzyl)piperazin-1-yl)ethan-1-ol] | – | – | – | – | – | – | mild increase in body mass | No differences in survival, hindlimb strength, or gross pathology | 89.48% | 89.45% | 101.46% | orally bioavailable
